# Reference: the supplement of paper PMC13380429
# What was measured:
# Conditions in all cases: 72 h
# Caco-2 [1] = test: relative viability EC50 (midpoint between 100% and the lowest measured viability); higher = less toxic
# HepG2 [2] = test: as above
# U2OS [3] = test: as above
# Calu-3 [4] = test: as above
# Caco-2 [5] = test: cell viability relative to DMSO; higher = less toxic
# HepG2 [6] = test: as above
# U2OS [7] = test: as above
# Calu-3 [8] = test: as above
# Caco-2 [9] = test: drug sensitivity score (DSS) for viability; higher = more toxic; extreme values may be limits of the assay
# HepG2 [10] = test: as above
# U2OS [11] = test: as above
# Calu-3 [12] = test: as above
# Vero E6 [13] = test: cell viability relative to DMSO; higher = less toxic
# Vero E6 [14] = test: drug sensitivity score (DSS) for viability; higher = more toxic; extreme values may be limits of the assay
# Vero E6 [15] = test: relative viability EC50 (midpoint between 100% and the lowest measured viability); higher = less toxic
Structure (SMILES),relative viability EC50 (Caco-2 [1]) [µM],relative viability EC50 (HepG2 [2]) [µM],relative viability EC50 (U2OS [3]) [µM],relative viability EC50 (Calu-3 [4]) [µM],cell viability (Caco-2 [5]; 1 nM) [%],cell viability (Caco-2 [5]; 10 nM) [%],cell viability (Caco-2 [5]; 100 nM) [%],cell viability (Caco-2 [5]; 1000 nM) [%],cell viability (Caco-2 [5]; 10000 nM) [%],cell viability (HepG2 [6]; 1 nM) [%],cell viability (HepG2 [6]; 10 nM) [%],cell viability (HepG2 [6]; 100 nM) [%],cell viability (HepG2 [6]; 1000 nM) [%],cell viability (HepG2 [6]; 10000 nM) [%],cell viability (U2OS [7]; 1 nM) [%],cell viability (U2OS [7]; 10 nM) [%],cell viability (U2OS [7]; 100 nM) [%],cell viability (U2OS [7]; 1000 nM) [%],cell viability (U2OS [7]; 10000 nM) [%],cell viability (Calu-3 [8]; 1 nM) [%],cell viability (Calu-3 [8]; 10 nM) [%],cell viability (Calu-3 [8]; 100 nM) [%],cell viability (Calu-3 [8]; 1000 nM) [%],cell viability (Calu-3 [8]; 10000 nM) [%],drug sensitivity score (Caco-2 [9]),drug sensitivity score (HepG2 [10]),drug sensitivity score (U2OS [11]),drug sensitivity score (Calu-3 [12]),cell viability (Vero E6 [13]; 1 nM) [%],cell viability (Vero E6 [13]; 10 nM) [%],cell viability (Vero E6 [13]; 100 nM) [%],cell viability (Vero E6 [13]; 1000 nM) [%],cell viability (Vero E6 [13]; 10000 nM) [%],drug sensitivity score (Vero E6 [14]),relative viability EC50 (Vero E6 [15]) [µM]
CCCCCCCC/C=C/C(=O)O [trans-2-undecenoic-acid],> 10,> 10,> 10,> 10,109,105,108,93.5,98.9,106,104,101,105,95.8,101,97,102,100,99.5,104,95.1,96.4,104,108,0,0,0,0,,,,,,,
C#CC[C@H](c1nc2cc(Cl)ccc2c(=O)n1Nc1ccccc1)N(CCCN)C(=O)c1cccc(Cl)c1F [ARQ-621],,0.929,2.23,> 10,101,96.6,93.6,81.7,73,93.7,100,94.5,62.2,26.6,103,98.9,101,93.4,42.3,105,101,104,86.7,78,3.1,8.5,4.2,2.1,102,100,96.2,101,54.9,2.3,
COCCOc1cnc2ccn([C@H](C)c3nnc4c(F)cc(-c5cnn(C)c5)cn34)c(=O)c2c1 [AMG-337],> 10,> 10,> 10,> 10,104,103,92.9,101,97.2,100,102,99.2,91.5,93.5,93,99.1,102,98,100,101,89,98.4,114,95.2,0,0,0,0,,,,,,,
Cc1nc(C#Cc2ccnc(Cl)c2)c(C)n1-c1ccc(OC(F)(F)F)cc1 [CTEP],,> 10,,> 10,93.9,107,86.9,84.6,55.8,100,88.6,100,91.5,85.1,94.6,98.2,95.5,100,58.2,99.2,101,93,96.5,92.3,4,0.2,2.1,0,102,100,91.8,102,94.5,0,> 10
c1ccc(-c2oc3ncnc(NC[C@@H]4CCCO4)c3c2-c2ccccc2)cc1 [AIM-100],,> 10,> 10,,115,92.6,96.6,104,71.3,83.4,98.6,99.8,97.4,95.6,103,102,105,101,95.5,106,92.2,96.6,97.7,74.7,1,0,0,1.3,90.2,98.6,96.6,87.2,95.9,0,> 10
Cc1cc(-c2nc(-c3ccc(OC(F)(F)F)cc3)no2)nn1Cc1ccnc(N2CCN(C3CC3)CC2)c1 [BAY-87-2243],,0.0071,,> 10,99.4,99,73.7,74.7,71.1,93.1,50.4,20.8,17.8,18.7,97.3,95.3,81.5,73.5,66.6,98.5,94.4,92.9,87.7,92,8,31.4,6.5,0.2,95.8,98.8,94.3,91,85.1,0.4,> 10
